Here are results for 11 compounds from patent US6610883B1, “Compounds having selective activity for retinoid X receptors, and means for modulation of processes mediated by retinoid X receptors” (Ligand Pharmaceuticals, Inc., priority 1992, dated 2003).

What all share (type): cell-based
One experiment deals with T1, RXRβ (Mus musculus, UniProt P28704).
T1 construct: expressed in transfected cells; host or cells: CV-1 (monkey kidney)
T1 sequence (P28704 1-520): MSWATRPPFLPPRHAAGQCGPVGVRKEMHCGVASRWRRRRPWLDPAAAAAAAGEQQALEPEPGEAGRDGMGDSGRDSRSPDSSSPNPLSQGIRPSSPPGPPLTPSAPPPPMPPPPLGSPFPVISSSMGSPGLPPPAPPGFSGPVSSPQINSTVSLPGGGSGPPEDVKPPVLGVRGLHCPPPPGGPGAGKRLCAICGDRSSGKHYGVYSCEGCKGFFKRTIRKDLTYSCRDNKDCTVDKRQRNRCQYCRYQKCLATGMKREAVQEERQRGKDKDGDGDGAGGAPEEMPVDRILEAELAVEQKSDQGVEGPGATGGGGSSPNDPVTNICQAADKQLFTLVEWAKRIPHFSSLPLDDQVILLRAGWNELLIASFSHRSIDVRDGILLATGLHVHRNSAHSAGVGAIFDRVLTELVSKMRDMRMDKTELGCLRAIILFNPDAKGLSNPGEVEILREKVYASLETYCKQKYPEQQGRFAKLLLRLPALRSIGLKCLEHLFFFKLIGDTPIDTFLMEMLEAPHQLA
Briefly: Co-transfection (cis-trans) assay in CV-1 cells, RXRβ. The following applies: for Emax at 10 µM: CV-1, maximal response relative to all-trans-retinoic acid at 10^−5 M, read-out: Efficacy. The source says:
(§1) The co-transfection assay provides a mechanism to evaluate the ability of a compound to modulate the transcription response initiated by an intracellular receptor. […] Berger, et al., J. Steroid Biochem Molec.
(§2) Briefly, the co-transfection assay involves the introduction of two plasmids by transient transfection into a retinoid receptor-negative mammalian cell background. The first plasmid contains a retinoid receptor cDNA and directs constitutive expression of the encoded receptor. The second plasmid contains a cDNA that encodes for a readily quantifiable protein, e.g., firefly luciferase or chloramphenicol acetyl transferase (CAT), under control of a promoter containing a retinoid acid response element, which confers retinoid dependence on the transcription of the reporter. In this co-transfection assay, all retinoid receptors respond to all-trans-retinoic acid in a similar fashion. This assay can be used to accurately measure efficacy and potency of retinoic acid and synthetic retinoids as ligands that interact with the individual retinoid receptor subtypes.
(§3) Accordingly, synthetic retinoid compounds of the current invention were evaluated for their interaction with retinoid receptor subtypes using the co-transfection assay in which CV-1 cells were co-transfected with one of the retinoid receptor subtypes, a reporter construct, and an internal control to allow normalization of the response for transfection efficiency. The following example is illustrative.
(§4) Retinoids: All-tans-retinoic acid (RA) and 13-cis-retinoic acid (13-cis-RA) were obtained from Sigma. […] Retinoids were dissolved in dimethylsulfoxide for use in the transcriptional activation assays.
(§5) Co-transfection Assay In CV-1 Cells: A monkey kidney cell line, CV-1, was used in the cis-trans assay. Cells were transfected with two plasmids. […] The cis-vector contains an easily assayable gene product, in this case the firefly luciferase, coupled to a retinoid-responsive promoter, i.e., an RARE or RXRE. Addition of retinoic acid or an appropriate synthetic retinoid results in the formation of a retinoid-RAR or -RXR complex that activates the expression of luciferase gene, causing light to be emitted from cell extracts. The level of luciferase activity is directly proportional to the effectiveness of the retinoid-receptor complex in activating gene expression. This sensitive and reproducible co-transfection approach permits the identification of retinoids that interact with the different receptor isoforms.
(§6) Cells were cultured in DMEM supplemented with 10% charcoal resin-stripped fetal bovine serum, and experiments were conducted in 96-well plates. […] Cells were transfected for 6 h and then washed to remove the precipitate. The cells were then incubated for 36 h with or without retinoid. After the transfection, all subsequent steps were performed on a Beckman Biomek Automated Workstation. […] All determinations were performed in triplicate in two independent experiments and were normalized for transfection efficiency by using β-galactosidase as the internal control. […] Efficacy values less than 5% are not statistically different than the 0% background.

In a further experiment the target is T2, RARα (Homo sapiens, UniProt P10276).
T2 sequence (P10276 1-462): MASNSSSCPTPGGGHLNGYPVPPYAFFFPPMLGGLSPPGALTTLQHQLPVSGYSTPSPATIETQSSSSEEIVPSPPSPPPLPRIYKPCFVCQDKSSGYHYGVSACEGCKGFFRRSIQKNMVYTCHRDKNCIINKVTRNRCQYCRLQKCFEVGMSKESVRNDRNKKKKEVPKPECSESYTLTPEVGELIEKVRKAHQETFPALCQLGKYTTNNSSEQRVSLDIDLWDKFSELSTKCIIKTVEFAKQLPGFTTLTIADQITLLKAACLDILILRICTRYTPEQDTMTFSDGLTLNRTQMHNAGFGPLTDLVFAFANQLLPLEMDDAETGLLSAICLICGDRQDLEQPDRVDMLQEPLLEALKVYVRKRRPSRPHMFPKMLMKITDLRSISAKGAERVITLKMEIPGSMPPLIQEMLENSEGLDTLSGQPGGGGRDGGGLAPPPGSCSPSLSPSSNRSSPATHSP
The experiment can be described thus: Co-transfection (cis-trans) assay in CV-1 cells, RARα. Further details: expressed in transfected cells; host or cells: CV-1 (monkey kidney). The note with it: for Emax at 10 µM: CV-1, maximal response relative to all-trans-retinoic acid at 10^−5 M, read-out: Efficacy; for EC50: CV-1 cells, luciferase reporter, 36 h, read-out: Potency.
Description: as §1, §2, §3, §4, §5, §6
On the technique in general: Reporter assays use an easily measured gene product as a stand-in for the process of interest.

The target of another experiment is T3, RARγ (Homo sapiens, UniProt P13631).
T3 sequence (P13631 1-454): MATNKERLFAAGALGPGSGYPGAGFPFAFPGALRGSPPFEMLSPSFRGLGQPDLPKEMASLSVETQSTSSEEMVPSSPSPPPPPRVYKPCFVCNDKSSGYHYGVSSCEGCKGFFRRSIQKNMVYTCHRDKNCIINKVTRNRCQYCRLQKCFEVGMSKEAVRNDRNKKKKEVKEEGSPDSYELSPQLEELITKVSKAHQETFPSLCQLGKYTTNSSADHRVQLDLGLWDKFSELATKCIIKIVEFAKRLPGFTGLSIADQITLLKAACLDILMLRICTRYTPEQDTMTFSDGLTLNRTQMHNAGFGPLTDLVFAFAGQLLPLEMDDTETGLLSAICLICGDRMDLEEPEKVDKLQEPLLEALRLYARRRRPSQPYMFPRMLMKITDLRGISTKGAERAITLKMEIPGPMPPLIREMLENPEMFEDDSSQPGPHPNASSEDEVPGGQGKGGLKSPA
The experiment can be described thus: Co-transfection (cis-trans) assay in CV-1 cells, RARγ. The arrangement: expressed in transfected cells; host or cells: CV-1 (monkey kidney). The note with it: for Emax at 10 µM: CV-1, maximal response relative to all-trans-retinoic acid at 10^−5 M, read-out: Efficacy; for EC50: CV-1 cells, luciferase reporter, 36 h, read-out: Potency.
Description: as §1, §2, §3, §4, §5, §6

The mark [1] stands for this setting: RXRβ, CV-1 cells, luciferase reporter, 36 h, read-out: Potency.

Where two headings read alike, the source gives them in different places.

On RXRβ, `C=C(c1ccc(C(=O)O)cc1)c1cc2c(cc1Br)C(C)(C)CCC2(C)C` [3-Bromo-TTNEB, 4-[1-(3-bromo-5,5,8,8-tetramethyl-5,6,7,8-tetrahydro-2-naphthyl)ethenyl]benzoic acid] had an EC50 of 54 nM. The Emax at 10 µM amounted to 3% on RARα and 15% at RARγ.

Regarding `Cc1cc2c(cc1C(=O)c1ccc(C(=O)Nc3ccc(O)cc3)cc1)C(C)(C)CCC2(C)C` [3-Methyl-TTNCHBP, 4-[(3,5,5,8,8-pentamethyl-5,6,7,8-tetrahydro-2-naphthyl)carbonyl]-N-(4-hydroxyphenyl)benzamide], the Emax at 10 µM was 155% at RXRβ (RXRβ), under 2% at RARα and 17% at RARγ. The EC50 at RXRβ (setting [1]) is 1100 nM; on RARα it was over 10 µM; on RARγ, over 10000 nM.

Take `C=C(c1ccc(C(=O)Nc2ccc(O)cc2)cc1)c1cc2c(cc1C)C(C)(C)CCC2(C)C` [3-Methyl-TTNEHBP (63), 4-[1-(3,5,5,8,8-pentamethyl-5,6,7,8-tetrahydro-2-naphthyl)ethenyl]-N-(4-hydroxyphenyl)benzamide]: the Emax at 10 µM on RXRβ (RXRβ) was 121%; on RARα, under 2%; at RARγ, 10%. In addition, the EC50 at RXRβ (setting [1]) was 71 nM; on RARα, over 10 µM; on RARγ, over 10000 nM.

Regarding `CCCC(=C/C=C/C(C)=C/C(=O)O)/C=C/C1=C(C)CCCC1(C)C` [Compound 74, 3-methyl-7-propyl-9-(2,6,6-trimethyl-1-cyclohexen-1-yl)-2E,4E,6Z,8E-nonatetranoic acid], the Emax at 10 µM at RXRβ (RXRβ) was 91%; at RARα it was under 2%; at RARγ, 61%. Moreover, the results for the EC50 at RXRβ (setting [1]), at RARα and on RARγ were 6 nM, over 10 µM and 37 nM, respectively.

Turning to `CC1=C(/C=C/C(=C\C=C\C(C)=C\C(=O)O)C(C)C)C(C)(C)CCC1` [Compound 75, 3-methyl-7-isopropyl-9-(2,6,6-trimethyl-1-cyclohexen-1-yl)-2E,4E,6Z,8E-nonatetranoic acid], the Emax at 10 µM on RXRβ (RXRβ) was 142%; on RARα, under 2%; on RARγ, 119%. The EC50 at RXRβ (setting [1]) is 18 nM; at RARα, over 10 µM; at RARγ, 150 nM.

`CC1=C(/C=C/C(=C\C=C\C(C)=C\C(=O)O)C(C)(C)C)C(C)(C)CCC1` [Compound 77, 3-methyl-7-t-butyl-9-(2,6,6-trimethyl-1-cyclohexen-1-yl)-2E,4E,6Z,8E-nonatetranoic acid]: the Emax at 10 µM was 99% at RXRβ (RXRβ), under 2% at RARα and 44% on RARγ. Besides, the EC50 on RXRβ (setting [1]) was 11 nM; on RARα, over 10 µM; at RARγ it was 170 nM.

With `CC1=C(C=CC2CCCCC2/C=C/C(C)=C/C(=O)O)C(C)(C)CCC1` (stereo not drawn) [Compound 100, 3-methyl-5-(2-[2-(2,6,6-trimethylcyclohexen-1-yl)ethenyl]cyclohexyl)-2E,4E-pentadienoic acid], the Emax at 10 µM at RXRβ (RXRβ) was determined as 54%; on RARα, 9%; at RARγ it was 4%. Moreover, the results for the EC50 at RXRβ (setting [1]), at RARα and on RARγ were 71 nM, over 10 µM and over 10000 nM, respectively.

Take `CC(/C=C/C1(c2cc3c(cc2C)C(C)(C)CCC3(C)C)CC1)=C\C(=O)O` [Compound 104, (2E,4E)-3-methyl-5-[1-(3,5,5,8,8-pentamethyl-5,6,7,8-tetrahydro-2-naphthyl)cyclopropyl]penta-2,4-dienoic acid]: the Emax at 10 µM at RXRβ (RXRβ) was 133%; on RARα, 7%; on RARγ, 28%. Further, the EC50 at RXRβ (setting [1]) was 13 nM; at RARα, over 10 µM; at RARγ, 144 nM.

With `CC1=C(/C=C/C2(C/C=C/C(C)=C/C(=O)O)CC2)C(C)(C)CCC1` [Compound 110], the Emax at 10 µM at RXRβ (RXRβ) turned out to be 73%; at RARα it was 9%; on RARγ, 37%. Moreover, the EC50 at RXRβ (setting [1]) is 70 nM; at RARα, over 10 µM; at RARγ, 1770 nM.

In the case of `CC(/C=C/C=C(\c1ccc2c(c1)C(C)(C)CCC2(C)C)C(C)C)=C\C(=O)O` [Compound 123, (2E,4E,6Z)-7-(5,5,8,8-tetramethyl-5,6,7,8-tetrahydro-2-naphthyl)-3,8-dimethyl-nona-2,4,6-trienoic acid], the Emax at 10 µM at RXRβ (RXRβ) is 105%; at RARα, 11%; at RARγ it was 49%. For the same compound, the EC50 is 21 nM on RXRβ (setting [1]), over 10 µM on RARα and 283 nM on RARγ.

In the case of `C/C(=C/C=C/C(C)=C/C(=O)O)c1cc2c(cc1C)C(C)(C)CCC2(C)C` [Compound 128, (2E,4E,6Z)-7-(3,5,5,8,8-pentamethyl-5,6,7,8-tetrahydro-2-naphthyl)-3-methyl-octa-2,4,6-trienoic acid], the Emax at 10 µM was determined as 154% at RXRβ (RXRβ), 12% on RARα and 37% at RARγ. Also, the EC50 was 22 nM on RXRβ (setting [1]), over 10 µM on RARα and 309 nM at RARγ.
